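Grown in 96-well plates, cells were treated for 48 hours with each compound at five concentrations. Insufficient inhibition: endpoint recorded as highest concentration tested. TGI marks complete inhibition of growth.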
Legend:
Assay in all cases: DTP human tumour cell line panel, 48 h
786-0 renal = test system: 786-0 renal
A498 renal = test system: A498 renal
A549 NSCLC = test system: A549 NSCLC
ACHN renal = test system: ACHN renal
CAKI-1 renal = test system: CAKI-1 renal
HCT-116 colon = test system: HCT-116 colon
HOP-92 NSCLC = test system: HOP-92 NSCLC
MCF7 breast = test system: MCF7 breast
MDA-MB-231 breast = test system: MDA-MB-231 breast
MOLT-4 leukemia = test system: MOLT-4 leukemia
NCI-H226 lung = test system: NCI-H226 lung
NCI-H522 lung = test system: NCI-H522 lung
OVCAR-3 ovarian = test system: OVCAR-3 ovarian
SF-539 CNS = test system: SF-539 CNS
SK-MEL-5 melanoma = test system: SK-MEL-5 melanoma
T-47D breast = test system: T-47D breast
UACC-257 melanoma = test system: UACC-257 melanoma
UACC-62 melanoma = test system: UACC-62 melanoma
IGROV1 ovarian = test system: IGROV1 ovarian
RXF 393 renal = test system: RXF 393 renal

## Cc1ccc(S(=O)(=O)OC2=C/C(=N\c3onc(C)c3C)c3ccccc3C2=O)cc1
786-0 renal
  TGI: > 100 µM
A498 renal
  TGI: > 100 µM
A549 NSCLC
  TGI: > 100 µM
ACHN renal
  TGI: > 100 µM
CAKI-1 renal
  TGI: 37.8 µM
HCT-116 colon
  TGI: 37.7 µM
HOP-92 NSCLC
  TGI: 33.2 µM
MCF7 breast
  TGI: 33.5 µM
MDA-MB-231 breast
  TGI: 41.6 µM
MOLT-4 leukemia
  TGI: 24.2 µM
NCI-H226 lung
  TGI: > 100 µM
NCI-H522 lung
  TGI: 21.1 µM
OVCAR-3 ovarian
  TGI: 30.1 µM
SF-539 CNS
  TGI: 79 µM
SK-MEL-5 melanoma
  TGI: 38.7 µM
T-47D breast
  TGI: 64.8 µM
UACC-257 melanoma
  TGI: 34.4 µM
UACC-62 melanoma
  TGI: 57.7 µM

## CCCCCCCCCCCCn1c(=O)cc(NCCCC)c2cc3c(NCCCC)cc(=O)n(CCCCCCCCCCCC)c3nc21
786-0 renal
  TGI: > 100 µM
A498 renal
  TGI: > 100 µM
A549 NSCLC
  TGI: > 100 µM
ACHN renal
  TGI: > 100 µM
CAKI-1 renal
  TGI: > 100 µM
HCT-116 colon
  TGI: > 100 µM
HOP-92 NSCLC
  TGI: > 100 µM
MCF7 breast
  TGI: > 100 µM
MDA-MB-231 breast
  TGI: > 100 µM
MOLT-4 leukemia
  TGI: > 100 µM
NCI-H226 lung
  TGI: > 100 µM
NCI-H522 lung
  TGI: > 100 µM
OVCAR-3 ovarian
  TGI: > 100 µM
SK-MEL-5 melanoma
  TGI: > 100 µM
T-47D breast
  TGI: > 100 µM
UACC-257 melanoma
  TGI: > 100 µM
UACC-62 melanoma
  TGI: > 100 µM

## COc1[nH]c(C(Cl)(Cl)Cl)c(Cl)c(=O)c1Cl
786-0 renal
  TGI: > 100 µM
A498 renal
  TGI: > 100 µM
A549 NSCLC
  TGI: > 100 µM
ACHN renal
  TGI: > 100 µM
CAKI-1 renal
  TGI: > 100 µM
HCT-116 colon
  TGI: > 100 µM
HOP-92 NSCLC
  TGI: > 100 µM
IGROV1 ovarian
  TGI: > 100 µM
MCF7 breast
  TGI: > 100 µM
MDA-MB-231 breast
  TGI: > 100 µM
MOLT-4 leukemia
  TGI: > 100 µM
NCI-H226 lung
  TGI: > 100 µM
NCI-H522 lung
  TGI: > 100 µM
OVCAR-3 ovarian
  TGI: > 100 µM
SF-539 CNS
  TGI: > 100 µM
SK-MEL-5 melanoma
  TGI: > 100 µM
T-47D breast
  TGI: > 100 µM
UACC-257 melanoma
  TGI: > 100 µM
UACC-62 melanoma
  TGI: > 100 µM

## O=CN1CCN(C(=O)c2cc(Cl)cc(Cl)c2)C1=S
786-0 renal
  TGI: 15.7 µM
A498 renal
  TGI: 29.6 µM
A549 NSCLC
  TGI: 39.8 µM
ACHN renal
  TGI: 31.7 µM
CAKI-1 renal
  TGI: 26 µM
HCT-116 colon
  TGI: 32.7 µM
HOP-92 NSCLC
  TGI: 31.9 µM
IGROV1 ovarian
  TGI: 34.7 µM
MCF7 breast
  TGI: 20.8 µM
MDA-MB-231 breast
  TGI: 33.8 µM
MOLT-4 leukemia
  TGI: 42.7 µM
NCI-H226 lung
  TGI: 32.7 µM
NCI-H522 lung
  TGI: 15.4 µM
OVCAR-3 ovarian
  TGI: 27.9 µM
RXF 393 renal
  TGI: 30.6 µM
SF-539 CNS
  TGI: 39.7 µM
T-47D breast
  TGI: 36.7 µM
UACC-257 melanoma
  TGI: 32.3 µM
UACC-62 melanoma
  TGI: 31.2 µM

## COC1=NC(NC2OCC(O)C(O)C2O)=C(NC(C)=O)CN1C (stereo not drawn)
786-0 renal
  TGI: > 100 µM
A498 renal
  TGI: > 100 µM
A549 NSCLC
  TGI: > 100 µM
ACHN renal
  TGI: > 100 µM
CAKI-1 renal
  TGI: > 100 µM
HCT-116 colon
  TGI: > 100 µM
HOP-92 NSCLC
  TGI: > 100 µM
MCF7 breast
  TGI: > 100 µM
MDA-MB-231 breast
  TGI: > 100 µM
MOLT-4 leukemia
  TGI: > 100 µM
NCI-H226 lung
  TGI: > 100 µM
NCI-H522 lung
  TGI: > 100 µM
OVCAR-3 ovarian
  TGI: > 100 µM
RXF 393 renal
  TGI: > 100 µM
SF-539 CNS
  TGI: > 100 µM
SK-MEL-5 melanoma
  TGI: > 100 µM
T-47D breast
  TGI: > 100 µM
UACC-62 melanoma
  TGI: > 100 µM

## Cc1cc2c(c(C=Nc3ccc([N+](=O)[O-])cc3)c1)OC1(C=C2)Oc2ccccc2C(=O)N1C (stereo not drawn)
786-0 renal
  TGI: 54.3 µM
A498 renal
  TGI: 61.6 µM
A549 NSCLC
  TGI: > 100 µM
ACHN renal
  TGI: 50.5 µM
CAKI-1 renal
  TGI: 48.4 µM
HCT-116 colon
  TGI: 30.9 µM
HOP-92 NSCLC
  TGI: 50.9 µM
IGROV1 ovarian
  TGI: 56.6 µM
MCF7 breast
  TGI: 46 µM
MDA-MB-231 breast
  TGI: 45 µM
MOLT-4 leukemia
  TGI: 35 µM
NCI-H226 lung
  TGI: 46 µM
NCI-H522 lung
  TGI: > 100 µM
OVCAR-3 ovarian
  TGI: 60.9 µM
RXF 393 renal
  TGI: 47.5 µM
SK-MEL-5 melanoma
  TGI: > 100 µM
T-47D breast
  TGI: 26.9 µM
UACC-257 melanoma
  TGI: 42.4 µM
UACC-62 melanoma
  TGI: 34.9 µM

## OC(c1cccnc1)C(F)(F)c1nc2ccccc2o1 (stereo not drawn)
786-0 renal
  TGI: > 100 µM
A498 renal
  TGI: > 100 µM
ACHN renal
  TGI: > 100 µM
CAKI-1 renal
  TGI: > 100 µM
HCT-116 colon
  TGI: > 100 µM
HOP-92 NSCLC
  TGI: > 100 µM
IGROV1 ovarian
  TGI: > 100 µM
MCF7 breast
  TGI: > 100 µM
MDA-MB-231 breast
  TGI: > 100 µM
MOLT-4 leukemia
  TGI: > 100 µM
NCI-H226 lung
  TGI: > 100 µM
RXF 393 renal
  TGI: > 100 µM
SF-539 CNS
  TGI: > 100 µM
SK-MEL-5 melanoma
  TGI: > 100 µM
T-47D breast
  TGI: > 100 µM
UACC-257 melanoma
  TGI: > 100 µM
UACC-62 melanoma
  TGI: > 100 µM

## C=CC1ON(C)CCc2cc(OC)c(OC)cc21 (stereo not drawn)
786-0 renal
  TGI: > 100 µM
A498 renal
  TGI: > 100 µM
A549 NSCLC
  TGI: > 100 µM
ACHN renal
  TGI: > 100 µM
CAKI-1 renal
  TGI: > 100 µM
HCT-116 colon
  TGI: > 100 µM
HOP-92 NSCLC
  TGI: > 100 µM
IGROV1 ovarian
  TGI: > 100 µM
MCF7 breast
  TGI: > 100 µM
MDA-MB-231 breast
  TGI: > 100 µM
MOLT-4 leukemia
  TGI: > 100 µM
NCI-H226 lung
  TGI: > 100 µM
NCI-H522 lung
  TGI: > 100 µM
OVCAR-3 ovarian
  TGI: > 100 µM
SF-539 CNS
  TGI: > 100 µM
SK-MEL-5 melanoma
  TGI: > 100 µM
T-47D breast
  TGI: > 100 µM
UACC-257 melanoma
  TGI: > 100 µM
UACC-62 melanoma
  TGI: > 100 µM

## COC(=O)C1=NN2c3ccccc3C(=O)OCCC2(C)C1 (stereo not drawn)
786-0 renal
  TGI: > 100 µM
A498 renal
  TGI: > 100 µM
A549 NSCLC
  TGI: > 100 µM
ACHN renal
  TGI: > 100 µM
CAKI-1 renal
  TGI: > 100 µM
HCT-116 colon
  TGI: > 100 µM
HOP-92 NSCLC
  TGI: > 100 µM
IGROV1 ovarian
  TGI: > 100 µM
MCF7 breast
  TGI: > 100 µM
MDA-MB-231 breast
  TGI: > 100 µM
MOLT-4 leukemia
  TGI: > 100 µM
NCI-H226 lung
  TGI: > 100 µM
NCI-H522 lung
  TGI: > 100 µM
OVCAR-3 ovarian
  TGI: > 100 µM
RXF 393 renal
  TGI: > 100 µM
SF-539 CNS
  TGI: > 100 µM
SK-MEL-5 melanoma
  TGI: > 100 µM
T-47D breast
  TGI: > 100 µM
UACC-62 melanoma
  TGI: > 100 µM

## COC(=O)CCC(NC(=O)C(C)NC(=O)COC1C(O)C(OC(=O)CCNc2c3ccccc3nc3cccc([N+](=O)[O-])c23)OC(OCc2ccccc2)C1NC(C)=O)C(N)=O (stereo not drawn)
786-0 renal
  TGI: > 10 µM
A498 renal
  TGI: > 10 µM
A549 NSCLC
  TGI: > 10 µM
ACHN renal
  TGI: > 10 µM
HCT-116 colon
  TGI: 9.11 µM
HOP-92 NSCLC
  TGI: > 10 µM
IGROV1 ovarian
  TGI: > 10 µM
MCF7 breast
  TGI: 9.81 µM
MDA-MB-231 breast
  TGI: > 10 µM
MOLT-4 leukemia
  TGI: > 10 µM
NCI-H226 lung
  TGI: > 10 µM
OVCAR-3 ovarian
  TGI: > 10 µM
RXF 393 renal
  TGI: 8.28 µM
SF-539 CNS
  TGI: > 10 µM
SK-MEL-5 melanoma
  TGI: > 10 µM
T-47D breast
  TGI: > 10 µM
UACC-257 melanoma
  TGI: > 10 µM
UACC-62 melanoma
  TGI: > 10 µM

## Cc1ccc2c(=O)cc(-c3cccc4ccccc34)[nH]c2n1
786-0 renal
  TGI: > 79.2 µM
A498 renal
  TGI: 0.0568 µM
A549 NSCLC
  TGI: > 48.1 µM
ACHN renal
  TGI: > 100 µM
CAKI-1 renal
  TGI: > 100 µM
HCT-116 colon
  TGI: > 34.8 µM
HOP-92 NSCLC
  TGI: 32 µM
IGROV1 ovarian
  TGI: > 100 µM
MCF7 breast
  TGI: > 43.1 µM
MDA-MB-231 breast
  TGI: > 100 µM
MOLT-4 leukemia
  TGI: > 100 µM
NCI-H226 lung
  TGI: 35.2 µM
RXF 393 renal
  TGI: > 100 µM
SK-MEL-5 melanoma
  TGI: 0.0897 µM
T-47D breast
  TGI: > 100 µM
UACC-257 melanoma
  TGI: > 100 µM
UACC-62 melanoma
  TGI: > 100 µM

## CC1(C)CC[C@]2(C(=O)O)CC[C@]3(C)C(=CC[C@@H]4[C@@]5(C)C[C@H](O)[C@H](O)[C@@](C)(CO)C5=CC[C@]43C)[C@@H]2C1
786-0 renal
  TGI: > 100 µM
A498 renal
  TGI: > 100 µM
A549 NSCLC
  TGI: > 100 µM
ACHN renal
  TGI: > 100 µM
CAKI-1 renal
  TGI: > 100 µM
HCT-116 colon
  TGI: > 100 µM
HOP-92 NSCLC
  TGI: > 100 µM
IGROV1 ovarian
  TGI: > 100 µM
MCF7 breast
  TGI: > 100 µM
MDA-MB-231 breast
  TGI: > 100 µM
MOLT-4 leukemia
  TGI: > 100 µM
NCI-H522 lung
  TGI: > 100 µM
OVCAR-3 ovarian
  TGI: > 100 µM
SF-539 CNS
  TGI: > 100 µM
SK-MEL-5 melanoma
  TGI: > 100 µM
T-47D breast
  TGI: > 100 µM
UACC-257 melanoma
  TGI: > 100 µM
UACC-62 melanoma
  TGI: > 100 µM
